Like-named read-outs stand apart in the source and are kept apart here.
Columns and labels:
[1] = molecular target: T1, terbium chelate-labeled menin / FITC-MBM1 peptide (Menin/MLL) (Homo sapiens, UniProt O00255, T541A); assay: Menin/MLL homogenous time-resolved fluorescence (HTRF) assay; format: binding; conditions: read-out: (2) Menin HTRF assay (IC50 (nM))
T1 construct: Menin (a. a. l-610-6×his tag) was labeled with terbium cryptate as follows
T1 sequence (O00255 with tags, fused parts or gaps T541A): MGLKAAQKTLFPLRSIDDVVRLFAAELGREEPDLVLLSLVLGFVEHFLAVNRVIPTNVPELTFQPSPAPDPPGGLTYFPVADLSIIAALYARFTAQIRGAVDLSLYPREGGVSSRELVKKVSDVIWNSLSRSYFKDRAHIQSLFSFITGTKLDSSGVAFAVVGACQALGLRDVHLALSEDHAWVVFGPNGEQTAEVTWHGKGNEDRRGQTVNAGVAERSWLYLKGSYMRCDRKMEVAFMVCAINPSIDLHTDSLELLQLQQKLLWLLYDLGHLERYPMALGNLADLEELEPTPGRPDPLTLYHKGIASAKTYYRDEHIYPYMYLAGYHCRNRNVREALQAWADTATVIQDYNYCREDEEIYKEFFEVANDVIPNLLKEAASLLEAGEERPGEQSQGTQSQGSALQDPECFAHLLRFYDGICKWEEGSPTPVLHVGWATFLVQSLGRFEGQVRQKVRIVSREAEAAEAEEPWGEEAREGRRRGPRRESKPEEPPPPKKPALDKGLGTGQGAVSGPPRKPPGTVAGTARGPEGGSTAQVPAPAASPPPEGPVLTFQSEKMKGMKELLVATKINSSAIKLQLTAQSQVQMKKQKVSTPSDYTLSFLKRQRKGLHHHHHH
In short: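 Terbium cryptate-labeled menin (aa 1-610, 6×His), 100 pM, preincubated 5 min with compound, then 75 nM FITC-MBM1 peptide added for 15 min at ambient temperature. Buffer: 40 mM Tris pH 7.5, 50 mM NaCl, 1 mM DTT, 0.05% Pluronic F-127, 0.5% DMSO. HTRF 520/490 ratio; 11-point threefold titration from 25 μM, IC50 from % inhibition curve.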

MOLM14 cells (MLL-AF9) = assay: Proliferation assay (spheroid-like growth, 8 d, live-cell imaging), MOLM14; format: cell-based, human; conditions: absolute IC50 from AUC of confluence, read-out: (3) Spheroid assay MOLM14 (IC50 (μM))
Procedure: The anti-proliferative effect of menin/MLL protein/protein interaction inhibitor test compounds was assessed in human leukemia cell lines. The cell lines MV-4-1 1 and MOLM14 harbor MEL translocations and express the MEL fusion proteins MLL-AF4 and MLL-AF9, respectively, as well as the wildtype protein from the second allele. […] K562 was used as a control cell line containing two MLL wildtype alleles in order to exclude compounds that display general cytotoxic effects.
MV-4-1 1 and MOLM14 were cultured in RPMI-1640 (Sigma Aldrich) supplemented with 10% fetal bovine serum (HyClone), 2 mM L-glutamine (Sigma Aldrich) and 50 μg/ml gentamycin (Gibco). K562 were propagated in RPMI-1640 (Sigma Aldrich) supplemented with 20% fetal bovine serum (HyClone), 2 mM L-glutamine (Sigma Aldrich) and 50 μg/ml gentamycin (Gibco).
In order to assess the anti-proliferative effects, 1,500 MV-4-1 1, 300 MOLM14 or 750 K562 cells were seeded in 200 μl media per well in 96-well round bottom, ultra-low attachment plates (Costar, catalogue number 7007). Cell seeding numbers were chosen based on growth curves to ensure linear growth throughout the experiment. Test compounds were added at different concentrations and the DMSO content was normalized to 0.3%>. Cells were incubated for 8d at 37° C. and 5% C02. Spheroid like growth was monitored in real-time by live-cell imaging (IncuCyteZOOM, Essenbio, 4× objective) acquiring one image every four hours for 8d. Confluence (%) as a measure of spheroid size was determined using an integrated analysis tool.
In order to determine the cumulative effect of the test compounds over time, the area under the curve (AUC) in a plot of confluence against time was calculated. Confluence at the beginning of the experiment (t=0) was used as baseline for the AUC calculation.
Absolute IC50 values were calculated according to the following procedure: % Control=(AUC sample/AUC control)*100 AUC control=mean AUC of control values(cells without compound/DMSO as vehicle control)
A non-linear curve fit was applied using the least squares (ordinary) fit method to the plot of % control versus compound concentration. Based on this, the absolute IC50 value (half maximal inhibitory concentration of the test compound causing an anti-proliferative effect of 50% relative to the vehicle control) was calculated.

IC50 [1] [nM]	IC50 (MOLM14 cells (MLL-AF9); Homo sapiens, MOLM-14, 192 h) [µM]	IC50 (MOLM14 cells (MLL-AF9)) [µM]	Structure (SMILES)
50	11.3	–	CC(C)CNC1CCCN(c2ncnc3sc(CC(F)(F)F)cc23)CC1 (single isomer, unassigned) [Compound B1A, N-isobutyl-1-(6-(2,2,2-trifluoroethyl)thieno[2,3-d]pyrimidin-4-yl)azepan-4-amine]
788	–	> 15	CC(C)CNC1CCCN(c2ncnc3sc(CC(F)(F)F)cc23)CC1 (single isomer, unassigned) [Compound B1B, N-isobutyl-1-(6-(2,2,2-trifluoroethyl)thieno[2,3-d]pyrimidin-4-yl)azepan-4-amine]
14	3.1	–	FC(F)(F)Cc1cc2c(N3CCC[C@@H](NCc4ccccc4)CC3)ncnc2s1 [Compound 3, (R)N-benzyl-1-(6-(2,2,2-trifluoroethyl)thieno[2,3-d]pyrimidin-4-yl)azepan-4-amine]
330	7.6	–	FC(F)(F)Cc1cc2c(N3CCC[C@H](NCc4ccccc4)CC3)ncnc2s1 [Compound 4, (S)-N-benzyl-1-(6-(2,2,2-trifluoroethyl)thieno[2,3-d]pyrimidin-4-yl)azepan-4-amine]

— patent US11530226B2, “Azepane inhibitors of menin-MLL interaction” (Janssen Pharmaceutica NV, priority 2016, dated 2022)
